Activity calls are given as the source filed them. No cut-off for these calls is given here.
Assays:
Nucleic Acid [1] = experiment: Induction of DNA intercalation using 5'-d(ATATATATATAT)2-3' at 250 uM by UV-vis spectrophotometric analysis; type: nucleic-acid assay
Nucleic Acid [2] = experiment: Induction of DNA intercalation using 5'-d(ATATATGATATA)-3'/5'-(TATATCATATAT)-3' at 250 uM by UV-vis spectrophotometric analysis; type: nucleic-acid assay
Nucleic Acid [3] = experiment: Induction of DNA intercalation using 5'-d(ATATAGTATATA)-3'/5'-(TATATACTATAT)-3' at 250 uM by UV-vis spectrophotometric analysis; type: nucleic-acid assay
Nucleic Acid [4] = experiment: Induction of DNA intercalation using 5'-d(GTAATATTAC)2-3' at 250 uM by UV-vis spectrophotometric analysis; type: nucleic-acid assay
Nucleic Acid [5] = experiment: Induction of DNA intercalation using 5'-d(GCGCGCGC)2-3' at 250 uM by UV-vis spectrophotometric analysis; type: nucleic-acid assay
Nucleic Acid [6] = experiment: Induction of DNA intercalation using 5'-d(GTCCGCGGAC)2-3' at 250 uM by UV-vis spectrophotometric analysis; type: nucleic-acid assay
Nucleic Acid [7] = experiment: Induction of DNA intercalation using 5'-d(GTCCGTCGGAC)-3'/5'-(GTCCGACGGAC)-3' at 250 uM by UV-vis spectrophotometric analysis; type: nucleic-acid assay
Nucleic Acid [8] = experiment: Induction of DNA intercalation using 5'-r(GCGCGCGC)2-3' at 250 uM by UV-vis spectrophotometric analysis; type: nucleic-acid assay
Nucleic Acid [9] = experiment: Induction of DNA intercalation using 5'-r(GUCCGCGGAC)2-3' at 250 uM by UV-vis spectrophotometric analysis; type: nucleic-acid assay
Nucleic Acid [10] = experiment: Induction of DNA intercalation using 5'-d(CGATCG)2-3' by NMR analysis; type: nucleic-acid assay
Nucleic Acid [11] = experiment: Induction of DNA intercalation using 5'-d(GTCCGCGGAC)2-3' at 1:0, 1:0.5, 1:1, 1:1.5, 1:2 DNA to compound molar ratio by CD spectroscopic analysis; type: nucleic-acid assay
[12] = Binding affinity to 5'-d(ATATATATATAT)2-3' DNA assessed as change in melting temperature at 1:1 DNA to compound molar ratio by spectrophotometric analysis
[13] = Binding affinity to 5'-d(ATATATGATATA)-3'/5'-(TATATCATATAT)-3' DNA assessed as change in melting temperature at 1:1 DNA to compound molar ratio by spectrophotometric analysis
[14] = Binding affinity to 5'-d(ATATAGTATATA)-3'/5'-(TATATACTATAT)-3' DNA assessed as change in melting temperature at 1:1 DNA to compound molar ratio by spectrophotometric analysis
[15] = Binding affinity to 5'-d(GTAATATTAC)2-3' DNA assessed as change in melting temperature at 1:1 DNA to compound molar ratio by spectrophotometric analysis
[16] = Binding affinity to 5'-d(GCGCGCGC)2-3' DNA assessed as change in melting temperature at 1:1 DNA to compound molar ratio by spectrophotometric analysis
[17] = Binding affinity to 5'-d(GTCCGCGGAC)2-3' DNA assessed as change in melting temperature at 1:1 DNA to compound molar ratio by spectrophotometric analysis
[18] = Binding affinity to 5'-d(GTCCGTCGGAC)-3'/5'-(GTCCGACGGAC)-3' DNA assessed as change in melting temperature at 1:1 DNA to compound molar ratio by spectrophotometric analysis
[19] = Binding affinity to 5'-r(GCGCGCGC)2-3' DNA assessed as change in melting temperature at 1:1 DNA to compound molar ratio by spectrophotometric analysis
[20] = Binding affinity to 5'-r(GUCCGCGGAC)2-3' DNA assessed as change in melting temperature at 1:1 DNA to compound molar ratio by spectrophotometric analysis
Nucleic Acid [21] = experiment: Induction of DNA intercalation using 5'-d(CGATCG)2-3' at 1:0.5 DNA to compound molar ratio by NMR analysis; type: nucleic-acid assay

In the case of `CN(C)CCN1C(=O)c2cccc3cc([N+](=O)[O-])cc(c23)C1=O`, the Activity (Nucleic Acid [1]) is reported as “Active”, the Activity (Nucleic Acid [2]) is reported as “Active” and the Activity (Nucleic Acid [3]) is reported as “Active”. For the same compound, the Activity (Nucleic Acid [4]) was “Active”, the Activity (Nucleic Acid [5]) was “Active” and the Activity (Nucleic Acid [6]) was “Active”. The Activity (Nucleic Acid [7]) was “Active”, the Activity (Nucleic Acid [8]) was “Active” and the Activity (Nucleic Acid [9]) was “Active”. The Activity (Nucleic Acid [10]) was “Active”, the Activity (Nucleic Acid [11]) was “Active” and the ΔTm [12] was 0 °C. It also gave a ΔTm [13] of 17.2 °C, a ΔTm [14] of 11.7 °C and a ΔTm [15] of 12.6 °C. For the same compound, the ΔTm [16] was 14.3 °C, the ΔTm [17] was 13.3 °C and the ΔTm [18] was 5 °C. It also gave a ΔTm [19] of 1.8 °C and a ΔTm [20] of 2.2 °C.
With `CN(C)CCN1C(=O)c2cccc3cc(I)cc(c23)C1=O` the Activity (Nucleic Acid [1]) was “Active”, the Activity (Nucleic Acid [2]) was “Active” and the Activity (Nucleic Acid [3]) was “Active”. The Activity (Nucleic Acid [4]) was “Active”, the Activity (Nucleic Acid [5]) was “Active” and the Activity (Nucleic Acid [6]) was “Active”. The Activity (Nucleic Acid [7]) was “Active”, the Activity (Nucleic Acid [8]) was “Active” and the Activity (Nucleic Acid [9]) was “Active”. The ΔTm [12] was 0 °C, the ΔTm [13] was 8.4 °C and the ΔTm [14] was 1.7 °C. The ΔTm [15] was 4.4 °C, the ΔTm [16] was 2.5 °C and the ΔTm [17] was 0 °C. For the same compound, the ΔTm [18] was 0 °C, the ΔTm [19] was 0 °C and the ΔTm [20] was 0 °C.
With `Cc1cc2c3c(cccc3c1)C(=O)N(CCN(C)C)C2=O` the Activity (Nucleic Acid [1]) was “Active”, the Activity (Nucleic Acid [2]) was “Active” and the Activity (Nucleic Acid [3]) was “Active”. The Activity (Nucleic Acid [4]) was “Active”, the Activity (Nucleic Acid [5]) was “Active” and the Activity (Nucleic Acid [6]) was “Active”. For the same compound, the Activity (Nucleic Acid [7]) was “Active”, the Activity (Nucleic Acid [8]) was “Active” and the Activity (Nucleic Acid [9]) was “Active”. It also gave a ΔTm [12] of 0 °C, a ΔTm [13] of 5.1 °C and a ΔTm [14] of 0 °C. For the same compound, the ΔTm [15] was 0 °C, the ΔTm [16] was 3.2 °C and the ΔTm [17] was 2.7 °C. The ΔTm [18] was 0 °C, the ΔTm [19] was 0 °C and the ΔTm [20] was 0 °C.
For `CN(C)CCN1C(=O)c2cccc3cccc(c23)C1=O`, the Activity (Nucleic Acid [1]) was “Active”, the Activity (Nucleic Acid [2]) was “Active” and the Activity (Nucleic Acid [3]) was “Active”. For the same compound, the Activity (Nucleic Acid [4]) was “Active”, the Activity (Nucleic Acid [5]) was “Active” and the Activity (Nucleic Acid [6]) was “Active”. For the same compound, the Activity (Nucleic Acid [7]) was “Active”, the Activity (Nucleic Acid [8]) was “Active” and the Activity (Nucleic Acid [9]) was “Active”. For the same compound, the ΔTm [12] was 0 °C, the ΔTm [13] was 19.4 °C and the ΔTm [14] was 11.6 °C. It also gave a ΔTm [15] of 8.1 °C, a ΔTm [16] of 8.7 °C and a ΔTm [17] of 5.6 °C. For the same compound, the ΔTm [18] was 0 °C, the ΔTm [19] was 0 °C and the ΔTm [20] was 0 °C.
For `CN(C)CCN1C(=O)c2cccc3cc(N)cc(c23)C1=O`, the Activity (Nucleic Acid [1]) was “Active”, the Activity (Nucleic Acid [2]) was “Active” and the Activity (Nucleic Acid [3]) was “Active”. The Activity (Nucleic Acid [4]) was “Active”, the Activity (Nucleic Acid [5]) was “Active” and the Activity (Nucleic Acid [6]) was “Active”. The Activity (Nucleic Acid [7]) was “Active”, the Activity (Nucleic Acid [8]) was “Active” and the Activity (Nucleic Acid [9]) was “Active”. For the same compound, the Activity (Nucleic Acid [21]) was “Active”, the ΔTm [12] was 0 °C and the ΔTm [13] was 14.6 °C. The ΔTm [14] was 10.1 °C, the ΔTm [15] was 11.6 °C and the ΔTm [16] was 16.9 °C. For the same compound, the ΔTm [17] was 5.1 °C, the ΔTm [18] was 0 °C and the ΔTm [19] was 1.1 °C. For the same compound, the ΔTm [20] was 1 °C.
In the case of `CN(C)CCN1C(=O)c2cccc3cc(Br)cc(c23)C1=O`, the Activity (Nucleic Acid [1]) is reported as “Active”, the Activity (Nucleic Acid [2]) is reported as “Active” and the Activity (Nucleic Acid [3]) is reported as “Active”. The Activity (Nucleic Acid [4]) was “Active”, the Activity (Nucleic Acid [5]) was “Active” and the Activity (Nucleic Acid [6]) was “Active”. For the same compound, the Activity (Nucleic Acid [7]) was “Active”, the Activity (Nucleic Acid [8]) was “Active” and the Activity (Nucleic Acid [9]) was “Active”. It also gave a ΔTm [12] of 0 °C, a ΔTm [13] of 13.9 °C and a ΔTm [14] of 10.8 °C. It also gave a ΔTm [15] of 6.3 °C, a ΔTm [16] of 9.5 °C and a ΔTm [17] of 6 °C. For the same compound, the ΔTm [18] was 0 °C, the ΔTm [19] was 1.6 °C and the ΔTm [20] was 2 °C.
For `CN(C)CCN1C(=O)c2cccc3cc(Cl)cc(c23)C1=O`, the Activity (Nucleic Acid [1]) was “Active”, the Activity (Nucleic Acid [2]) was “Active” and the Activity (Nucleic Acid [3]) was “Active”. For the same compound, the Activity (Nucleic Acid [4]) was “Active”, the Activity (Nucleic Acid [5]) was “Active” and the Activity (Nucleic Acid [6]) was “Active”. For the same compound, the Activity (Nucleic Acid [7]) was “Active”, the Activity (Nucleic Acid [8]) was “Active” and the Activity (Nucleic Acid [9]) was “Active”. For the same compound, the ΔTm [12] was 0 °C, the ΔTm [13] was 7 °C and the ΔTm [14] was 0 °C. The ΔTm [15] was 4.5 °C, the ΔTm [16] was 6.3 °C and the ΔTm [17] was 1.1 °C. For the same compound, the ΔTm [18] was 0 °C, the ΔTm [19] was 0 °C and the ΔTm [20] was 0 °C.
For `CN(C)CCN1C(=O)c2cccc3cc(-c4ccccc4)cc(c23)C1=O`, the Activity (Nucleic Acid [1]) was “Active”, the Activity (Nucleic Acid [2]) was “Active” and the Activity (Nucleic Acid [3]) was “Active”. For the same compound, the Activity (Nucleic Acid [4]) was “Active”, the Activity (Nucleic Acid [5]) was “Active” and the Activity (Nucleic Acid [6]) was “Active”. For the same compound, the Activity (Nucleic Acid [7]) was “Active”, the Activity (Nucleic Acid [8]) was “Active” and the Activity (Nucleic Acid [9]) was “Active”. It also gave a ΔTm [12] of 0 °C, a ΔTm [13] of 1.3 °C and a ΔTm [14] of 5.8 °C. It also gave a ΔTm [15] of 0 °C, a ΔTm [16] of 0 °C and a ΔTm [17] of 0 °C. It also gave a ΔTm [18] of 0 °C, a ΔTm [19] of 0 °C and a ΔTm [20] of 0 °C.
With `CN(C)CCN1C(=O)c2cccc3cc(O)cc(c23)C1=O` the Activity (Nucleic Acid [1]) was “Active”, the Activity (Nucleic Acid [2]) was “Active” and the Activity (Nucleic Acid [3]) was “Active”. The Activity (Nucleic Acid [4]) was “Active”, the Activity (Nucleic Acid [5]) was “Active” and the Activity (Nucleic Acid [6]) was “Active”. For the same compound, the Activity (Nucleic Acid [7]) was “Active”, the Activity (Nucleic Acid [8]) was “Active” and the Activity (Nucleic Acid [9]) was “Active”. It also gave a ΔTm [12] of 0 °C, a ΔTm [13] of 14.7 °C and a ΔTm [14] of 5.7 °C. The ΔTm [15] was 4.4 °C, the ΔTm [16] was 1.6 °C and the ΔTm [17] was 1.6 °C. For the same compound, the ΔTm [18] was 2.2 °C, the ΔTm [19] was 0 °C and the ΔTm [20] was 0 °C.
For `CC(C)Nc1cc2c3c(cccc3c1)C(=O)N(CCN(C)C)C2=O`, the Activity (Nucleic Acid [1]) was “Active”, the Activity (Nucleic Acid [2]) was “Active” and the Activity (Nucleic Acid [3]) was “Active”. For the same compound, the Activity (Nucleic Acid [4]) was “Active”, the Activity (Nucleic Acid [5]) was “Active” and the Activity (Nucleic Acid [6]) was “Active”. The Activity (Nucleic Acid [7]) was “Active”, the Activity (Nucleic Acid [8]) was “Active” and the Activity (Nucleic Acid [9]) was “Active”. For the same compound, the ΔTm [12] was 0 °C, the ΔTm [13] was 16.4 °C and the ΔTm [14] was 0 °C. For the same compound, the ΔTm [15] was 7.3 °C, the ΔTm [16] was 7.9 °C and the ΔTm [17] was 0 °C. It also gave a ΔTm [18] of 2.1 °C, a ΔTm [19] of 0 °C and a ΔTm [20] of 1.1 °C.
In the case of `CC(=O)Nc1cc2c3c(cccc3c1)C(=O)N(CCN(C)C)C2=O`, the Activity (Nucleic Acid [1]) is reported as “Active”, the Activity (Nucleic Acid [2]) is reported as “Active” and the Activity (Nucleic Acid [3]) is reported as “Active”. For the same compound, the Activity (Nucleic Acid [4]) was “Active”, the Activity (Nucleic Acid [5]) was “Active” and the Activity (Nucleic Acid [6]) was “Active”. The Activity (Nucleic Acid [7]) was “Active”, the Activity (Nucleic Acid [8]) was “Active” and the Activity (Nucleic Acid [9]) was “Active”. The ΔTm [12] was 0 °C, the ΔTm [13] was 8.8 °C and the ΔTm [14] was 4.7 °C. The ΔTm [15] was 8.6 °C, the ΔTm [16] was 4.6 °C and the ΔTm [17] was 5.6 °C. For the same compound, the ΔTm [18] was 0 °C, the ΔTm [19] was 0 °C and the ΔTm [20] was 0 °C.
